{"source": "patent US9951226B2", "about": "“Compound based on cyanine scaffold for diagnosis sepsis by selectively detect glutathione” (EWHA UNIVERSITY—INDUSTRY COLLABORATION FOUNDATION, priority 2014, dated 2018)", "key": {"HeLa cells": {"system": "HeLa cells", "assay": "Changes of glutathione concentration in the presence of an oxidant (H2O2), HeLa cells", "format": "cell-based, human", "protocol": "100 μM of H2O2, the oxidant, was treated to HeLa cells prepared in Experimental Example 2 containing glutathione, the anti-oxidant, at 37° C. for 30 minutes to induce the changes of glutathione level. 20 μM of the compound prepared in Example 2 was added thereto, followed by culture at 37° C. for 20 minutes. The cells were washed with DPBS (Dulbecco's Phosphate Buffered Saline) three times to eliminate the remaining compound, followed by imaging with confocal laser scanning microscope (Fluoview 1200, Olympus, Japan). At this time, the emitting filter with the excitation wavelength of 635 nm and the band-path (BP) of 655˜755 nm was used."}, "[1]": {"system": "neutrophils of peritoneal cells", "assay": "Capacity of diagnosing sepsis: FACS of neutrophils of peritoneal cells from CLP sepsis mouse", "format": "cell-based", "conditions": "8 hours, 10 μM compound", "protocol": "According to a reference (J Vis Exp. 2011 May 7; (51). pii: 2860. doi: 10.3791/2860), C57BL/6 mouse (7˜8 weeks old, female, Jackson Laboratory) was induced with sepsis by performing CLP (cecal ligation and puncture). 8 hours later, peritoneal cells were extracted from the mouse. The cells were centrifuged and reacted to the neutrophil marker Ly6G (eFluor®450, eBioscience, Cat No. 48-5931) and 10 μM of the compound prepared in Example 2 at room temperature. 25 minutes later, 1 mL of 3% fetal bovine serum (FBS) was added thereto, followed by centrifugation at 3000 rpm for 5 minutes to wash the cells. The cells were resuspended in […] of HEPES (4-(2-hydroxyethyl)piperazine-1-ethanesulfonic acid) buffer (10 mM, pH=7.4), followed by FACS (Fluorescence Activated Cell Sorting) using the data analysis software FlowJo to observe the peaks (The setting for Alexa flour 700 fluorescence was hired, BD FACSVerse™)."}, "[2]": {"assay": "Absorption and fluorescence spectrum according to the concentration of glutathione", "format": "biochemical", "protocol": "(§1) 10 μM of the compound prepared in Example 2 and glutathione were added to HEPES (4-(2-hydroxyethyl)piperazine-1-ethanesulfonic acid) buffer (10 mM, pH=7.4) containing 10% dimethylsulfoxide (DMSO) with raising slowly the concentration of glutathione from 0 to 50 μM, during which the changes of absorption spectrum were observed using UV-vis sepctra (Scinco 3000 spectrophotometer, 1 cm quartz cell) at 25° C.\n(§2) The following experiment was performed by the same manner as described in Experimental Example <4-1> except that fluorescence spectrum was observed by using RF-5310/PC fluorescence spectrometer (Shimada, 1 cm quartz cell) instead of observing absorption spectrum via UV-vis sepctra (Scinco 3000 spectrophotometer, 1 cm quartz cell) (λex=730 nm, λem=736 nm, slit:10/10 nm).\nas §1, with “Example 3” for “Example 2”, “to 100” for “to 50”\nas §2, with “<16-1>” for “<4-1>”"}, "[3]": {"assay": "Glutathione selectivity: absorption/fluorescence spectrum with various amino acids in HEPES buffer", "format": "biochemical", "conditions": "10 μM compound", "protocol": "10 μM of the compound prepared in Example 2 was treated to HEPES (4-(2-hydroxyethyl)piperazine-1-ethanesulfonic acid) buffer (10 mM, pH=7.4) containing 10% DMSO and 100 μM of each glutathione, cysteine, homocysteine, dithiothreitol, phenylalanine, histidine, glutamine, lysine, glutamate, glycine, serine, alanine, arginine, methionine, and tyrosine, followed by observation of fluorescence spectrum at 25° C. by using RF-5310/PC fluorescence spectrometer (Shimada, 1 cm quartz cell).\nAn experiment was performed by the same manner as described in Experimental Example 3 except that the fragment 1 or the fragment 2 was used instead of the compound prepared in Example 2. […] To disclose the reason in relation to the above, the 3-dimensional structure of each of the compound of Example 1, the compound of Example 2, and the fragment 1 or the fragment 2, was investigated along with band-gap.\n10 μM of the compound prepared in Example 3 and 100 μM of each endogenous amino acid (alanine, arginine, cysteine, glutamate, glycine, glutathione, homocysteine, histidine, lysine, methionine, serine, and tyrosine) were added to HEPES (4-(2-hydroxyethyl)piperazine-1-ethanesulfonic acid) buffer (10 mM, pH=7.4) containing 10% dimethylsulfoxide (DMSO), followed by observation of absorption spectrum presented through UV-vis sepctra (Scinco 3000 spectrophotometer, 1 cm quartz cell) at 25° C.\nas §2, with “<15-1>” for “<4-1>”"}, "neutrophils": {"system": "neutrophils", "assay": "Capacity of diagnosing sepsis: bone marrow neutrophils infected with GFP tagged Pseudomonas Aeruginosa 01 (PA01)", "format": "cell-based, mouse", "protocol": "Neutrophils were extracted from the bone marrow of C57BL/6 mouse (7˜8 weeks old, female, Jackson Laboratory). The cells were infected with green fluorescent protein (GFP) tagged Pseudomonas Aeruginosa 01 (PA01) that is the causing bacteria of sepsis. 24 hours later, 10 μM of the compound prepared in Example 2 was added thereto, followed by reaction at 37° C. for 20 minutes. At this time, the emitting filter with the excitation wavelength of 635 nm and the band-path (BP) of 655˜755 nm was used."}, "[4]": {"conditions": "10 μM compound, glutathione not added"}, "[5]": {"conditions": "10 μM compound, glutathione raised from 0 to 50 μM"}}}
{"smiles": "CCCN1/C(=C/C=C2\\CCCC(/C=C/C3=[N+](CCC)c4ccccc4C3(C)C)=C2N2CCN(S(=O)(=O)c3cccc4c(N(C)C)cccc34)CC2)C(C)(C)c2ccccc21.[I-]", "note": "[Example 2, 2-((E)-2-((E)-3-((E)-2-(3,3-dimethyl-1-propylindolin-2-ylidene)ethylidene)-2-(4-(5-(dimethylamino)naphthalene-1-ylsulfonyl)piperazine-1-yl)cyclohex-1-enyl)binyl)-3,3-dimethyl-1-propyl-3H-indolium iodide]", "values": [{"measurement": "red fluorescence under confocal laser scanning microscope", "setting": "HeLa cells; HeLa cells pre-treated with 100 μM H2O2, 20 μM compound", "value": "red fluorescence was not observed"}, {"measurement": "red fluorescence under confocal laser scanning microscope", "setting": "HeLa cells; HeLa cells, 20 μM compound, 20 minutes", "value": "strong red fluorescence"}, {"measurement": "reaction to oxidized glutathione, glutathione disulfide (GSSG)", "setting": "HeLa cells; HeLa cells, H2O2", "value": "did not react"}, {"measurement": "glutathione level in neutrophils detected by the compound (FACS), sepsis mouse compared with normal mouse", "setting": "[1]", "value": "reduced"}, {"measurement": "absorption strength at 750 nm", "setting": "[2]; [4]", "value": "weak absorption strength"}, {"measurement": "fluorescence signal at 736 nm", "setting": "[2]; [4]", "value": "weak fluorescence signal"}, {"measurement": "absorption signal at 750 nm", "setting": "[2]; [5]", "value": "getting stronger"}, {"measurement": "fluorescence signal at 736 nm", "setting": "[2]; [5]", "value": "getting stronger"}, {"measurement": "dependence of the reaction on glutathione concentration", "setting": "[2]; conclusion from absorption and fluorescence spectra", "value": "glutathione dose-dependent"}, {"measurement": "fluorescence strength near 735 nm", "setting": "[3]; 100 μM glutathione, HEPES pH 7.4, 10% DMSO, 25° C.", "value": "strong fluorescence strength"}, {"measurement": "fluorescence strength at 736 nm", "setting": "[3]; 100 μM other amino acids, HEPES pH 7.4, 10% DMSO", "value": "very weak fluorescence strength"}, {"measurement": "fluorescence signal at around 736 nm over the time: selectivity among cysteine, homocysteine and glutathione", "setting": "[3]; glutathione, cysteine, homocysteine, FIG. 5", "value": "selectively reacted to glutathione alone"}, {"measurement": "red fluorescence indicating glutathione level in the red fluorescence channel", "setting": "neutrophils; neutrophils infected with GFP tagged PA01, 10 μM compound", "value": "reduced"}, {"measurement": "red fluorescence in the red fluorescent channel", "setting": "neutrophils; neutrophils not-infected with GFP tagged PA01, 10 μM compound", "value": "strong red fluorescence was detected"}]}
